Our source for the IC50 values is paper PMC4506562 (Chemmedchem, 2014).

Some results are limits rather than exact numbers.

The target of the experiment is T1, hsolAC (human soluble adenylate cyclase) (Homo sapiens, UniProt Q96PN6).
T1 sequence (Q96PN6 1-469): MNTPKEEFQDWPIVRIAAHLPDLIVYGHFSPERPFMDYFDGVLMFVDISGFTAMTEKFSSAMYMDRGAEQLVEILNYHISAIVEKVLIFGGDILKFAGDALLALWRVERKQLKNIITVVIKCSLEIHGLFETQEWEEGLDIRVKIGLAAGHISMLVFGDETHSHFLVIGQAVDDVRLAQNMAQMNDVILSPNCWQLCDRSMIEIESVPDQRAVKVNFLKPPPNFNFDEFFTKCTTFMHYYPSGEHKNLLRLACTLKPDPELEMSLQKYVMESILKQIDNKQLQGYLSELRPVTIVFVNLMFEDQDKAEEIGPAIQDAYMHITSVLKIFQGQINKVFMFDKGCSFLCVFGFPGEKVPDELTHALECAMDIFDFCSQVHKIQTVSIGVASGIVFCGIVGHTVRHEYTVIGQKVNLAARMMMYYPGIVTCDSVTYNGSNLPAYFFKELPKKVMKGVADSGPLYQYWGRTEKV
Nature of the experiment: Bridge-It cAMP fluorescence assay. The format is biochemical.

The term IC50 denotes the concentration that gives 50% inhibition. A high value points to a need for much substance. Consider `Cc1n[nH]cc1-c1ccc(F)cc1` [compound 1, 4-(4-Fluorophenyl)-3-methyl-1H-pyrazole], for which the IC50 is greater than 1000 µM.
